The nature of series [1]: Toxic concentration against uninfected cells and their ability to generate XTT formazan. The class given is ADME, cell-based. As to conditions: read-out: TC50 (the source's name). For orientation: Formazan colour is commonly taken as a measure of viable cells.
A short description of series [2]: Therapeutic index. As to conditions: read-out: Therapeutic index.
A further series deals with Human alphaherpesvirus 1. Put plainly: Inhibitory concentration against herpes simplex virus (HSV-1-lacZ) replication.

For orientation: EC50 means the concentration needed to bring the measured effect to its halfway point. Take `COc1ccc2sc3c(c2c1)NC[C@@H](C(C)C)NC3=O`: the CC50 in series [1] turned out to be 3300 nM. For the same compound, in series [2], the selectivity ratio was found to be 37. Besides, the EC50 with Human alphaherpesvirus 1 was 90 nM.

As to `COc1ccc2sc3c(c2c1)NC[C@@H](C)NC3=O`, the CC50 in series [1] turned out to be 1000 nM. Besides, the selectivity ratio in series [2] came to 50. The same compound yielded a 50% effective concentration (EC50) in the series on Human alphaherpesvirus 1 of 20 nM.

Turning to `COc1cccc(CN2CCNC(=O)c3sc4ccc(OC)cc4c32)c1`, in series [1], the CC50 is 10000 nM. Besides, the selectivity ratio in series [2] is 25000. In the series with Human alphaherpesvirus 1, the EC50 turned out to be 0.4 nM.

Regarding `COc1ccc2sc3c(c2c1)N(Cc1ccccc1Cl)CCNC3=O`, in series [1], the CC50 was 12000 nM. Further, the selectivity ratio in series [2] came to 1500. Moreover, the EC50 in the series on Human alphaherpesvirus 1 worked out at 8 nM.

For the compound `COc1ccc2sc3c(c2c1)NC[C@H](C(C)C)NC3=O`, in series [1], the CC50 worked out at 4000 nM. Moreover, the selectivity ratio in series [2] came to 67. The same compound showed an EC50 with Human alphaherpesvirus 1 of 60 nM.

In the case of `COc1ccc2sc3c(c2c1)N[C@@H](Cc1ccccc1)CNC3=O`, in series [1], the CC50 was determined as 1100 nM. In addition, the selectivity ratio in series [2] was determined as 110. The EC50 with Human alphaherpesvirus 1 is 10 nM.

Turning to `COc1ccc2sc3c(c2c1)NC[C@H](Cc1ccccc1)NC3=O`, the CC50 in series [1] worked out at 1900 nM. Further, the selectivity ratio in series [2] is 7. In addition, a half-maximal effect in the series on Human alphaherpesvirus 1 (EC50) was put at 280 nM.

Take `COc1ccc2sc3c(c2c1)N(Cc1ccc([N+](=O)[O-])cc1)CCNC3=O`: the CC50 in series [1] was determined as 25000 nM. Also, the selectivity ratio in series [2] amounted to 500. In the series on Human alphaherpesvirus 1, this compound returned an EC50 of 50 nM.

As for `COc1ccc2sc3c(c2c1)N[C@@H](C)CNC3=O`, the CC50 in series [1] amounted to 2000 nM. Further, the selectivity ratio in series [2] was determined as 40. The EC50 in the series on Human alphaherpesvirus 1 was found to be 50 nM.

On to `COc1ccc2sc3c(c2c1)SCCNC3=O`, for which the CC50 in series [1] was found to be 7600 nM. In addition, the selectivity ratio in series [2] came out at 60. In the series on Human alphaherpesvirus 1, this compound displayed an EC50 of 125 nM.

Regarding `COc1ccc2sc3c(c2c1)N(Cc1cccc([N+](=O)[O-])c1)CCNC3=O`, the CC50 in series [1] was determined as 25000 nM. The selectivity ratio in series [2] was 6250. In the series with Human alphaherpesvirus 1, the response was half-maximal at 4 nM (EC50).

On to `COc1ccc2sc3c(c2c1)NC[C@H](C)NC3=O`, for which the CC50 in series [1] turned out to be 6000 nM. In series [2], the selectivity ratio came to 35. Besides, in the series with Human alphaherpesvirus 1, the concentration giving a half-maximal response (EC50) amounted to 170 nM.

Turning to `COc1ccc(CN2CCNC(=O)c3sc4ccc(OC)cc4c32)cc1`, the CC50 in series [1] stood at 10000 nM. Moreover, in series [2], the selectivity ratio was 830. In addition, it took 12 nM to reach a half-maximal effect in the series on Human alphaherpesvirus 1 (EC50).

`COc1cccc(CN2C[C@H](C)NC(=O)c3sc4ccc(OC)cc4c32)c1`: the CC50 in series [1] stood at 11000 nM. Further, the selectivity ratio in series [2] turned out to be 550. This compound also returned an EC50 with Human alphaherpesvirus 1 of 20 nM.

With `COc1ccc2sc3c(c2c1)NCCNC3=O`, in series [1], the CC50 stood at 4500 nM. For the same compound, in series [2], the selectivity ratio was 35. In addition, in the series with Human alphaherpesvirus 1, the EC50 came to 130 nM.

With `COc1ccc2sc3c(c2c1)NC[C@@H](CC(C)C)NC3=O`, the CC50 in series [1] was determined as 7000 nM. In addition, the selectivity ratio in series [2] is 18. In the series on Human alphaherpesvirus 1, this compound returned an EC50 of 390 nM.

Take `COc1ccc2sc3c(c2c1)N(C)CCNC3=O`: the CC50 in series [1] was found to be 12500 nM. The selectivity ratio in series [2] amounted to 28. Besides, the EC50 with Human alphaherpesvirus 1 stood at 440 nM.

Consider `COc1ccc2sc3c(c2c1)[S+]([O-])CCNC3=O` (centres undefined), for which the CC50 in series [1] was found to be 25800 nM. Besides, the selectivity ratio in series [2] stood at 10. This compound registered an EC50 with Human alphaherpesvirus 1 of 2550 nM.

On to `COc1ccc2sc3c(c2c1)N[C@H](Cc1ccccc1)CNC3=O`, for which the CC50 in series [1] is 1400 nM. For the same compound, the selectivity ratio in series [2] stood at 16. This compound also had an EC50 in the series with Human alphaherpesvirus 1 of 90 nM.

Regarding `COc1cccc(CN2C[C@H](Cc3ccccc3)NC(=O)c3sc4ccc(OC)cc4c32)c1`, the CC50 in series [1] is 6000 nM. In addition, the selectivity ratio in series [2] was determined as 67. Besides, the EC50 in the series on Human alphaherpesvirus 1 was 90 nM.

As to `COc1ccc2sc3c(c2c1)N(Cc1cccc(C)c1)CCNC3=O`, the CC50 in series [1] was found to be 12000 nM. Besides, in series [2], the selectivity ratio was determined as 2400. This compound also yielded an EC50 in the series with Human alphaherpesvirus 1 of 5 nM.

Take `COc1cccc(CN2C[C@@H](Cc3ccccc3)NC(=O)c3sc4ccc(OC)cc4c32)c1`: in series [1], the CC50 was 4000 nM. In series [2], the selectivity ratio came to 9. The same compound registered an EC50 in the series with Human alphaherpesvirus 1 of 450 nM.

Regarding `C=CCN1CCNC(=O)c2sc3ccc(OC)cc3c21`, in series [1], the CC50 was determined as 1750 nM. For the same compound, in series [2], the selectivity ratio worked out at 1750. Besides, the EC50 in the series on Human alphaherpesvirus 1 came out at 1 nM.

Regarding `COc1ccc2sc3c(c2c1)OCCNC3=O`, the CC50 in series [1] was 13100 nM. Further, the selectivity ratio in series [2] is 60. This compound yielded an EC50 in the series with Human alphaherpesvirus 1 of 210 nM.

For `COc1ccc2sc3c(c2c1)NC[C@@H](Cc1ccccc1)NC3=O`, the CC50 in series [1] stood at 10000 nM. Besides, in series [2], the selectivity ratio was determined as 29. The compound also gave an EC50 in the series on Human alphaherpesvirus 1 of 340 nM.

As to `COc1ccc2sc3c(c2c1)N(Cc1ccc(Cl)cc1)CCNC3=O`, the CC50 in series [1] turned out to be 12000 nM. For the same compound, the selectivity ratio in series [2] turned out to be 300. Further, the EC50 in the series with Human alphaherpesvirus 1 stood at 40 nM.

On to `COc1ccc2sc3c(c2c1)N(Cc1ccc(C)cc1)CCNC3=O`, for which the CC50 in series [1] turned out to be 11000 nM. The selectivity ratio in series [2] stood at 360. This compound also registered an EC50 with Human alphaherpesvirus 1 of 30 nM.

As for `COc1ccc2sc3c(c2c1)N(Cc1cccc(Cl)c1)CCNC3=O`, the CC50 in series [1] came to 20000 nM. Besides, the selectivity ratio in series [2] came to 4000. In the series on Human alphaherpesvirus 1, the midpoint of the response, the EC50, lay at 5 nM.

Regarding `COc1ccc2sc3c(c2c1)N[C@H](C)CNC3=O`, the CC50 in series [1] was 7000 nM. In series [2], the selectivity ratio worked out at 54. Also, the EC50 with Human alphaherpesvirus 1 is 130 nM.

Regarding `COc1ccc2sc3c(c2c1)N(Cc1ccccc1C)CCNC3=O`, the CC50 in series [1] stood at 25000 nM. Further, the selectivity ratio in series [2] was 1200. The same compound showed an EC50 in the series on Human alphaherpesvirus 1 of 21 nM.

As to `COc1ccc2sc3c(c2c1)N(Cc1ccccc1)CCNC3=O`, the CC50 in series [1] stood at 8000 nM. The selectivity ratio in series [2] came out at 1600. In the series on Human alphaherpesvirus 1, this compound gave an EC50 of 5 nM.

Regarding `COc1cccc(CN2C[C@@H](C)NC(=O)c3sc4ccc(OC)cc4c32)c1`, the CC50 in series [1] was 3400 nM. The selectivity ratio in series [2] was found to be 170. Also, in the series on Human alphaherpesvirus 1, the concentration for a half-maximal effect (EC50) stood at 30 nM.

Take `COc1ccc2sc3c(c2c1)NC[C@H](CC(C)C)NC3=O`: in series [1], the CC50 was found to be 2000 nM. In series [2], the selectivity ratio is 100. This compound also returned an EC50 with Human alphaherpesvirus 1 of 20 nM.

For the origin of these results see ChEMBL document CHEMBL1136037, “Novel benzthiodiazepinones as antiherpetic agents: SAR improvement of therapeutic index by alterations of the seven-membered ring” (Bioorg Med Chem Lett, 2002).
